Test [1] relates to PEDV. Conditions: Kim et al., Virus Research (2013); cited from earlier work.
For test [2], the system named is pseudorabies viral diarrhea. Type of test: in vivo, pigs.
The subject of test [3] is porcine epidemic diarrhea. Description: Treatment of porcine epidemic diarrhea of weaned piglets, care pigs and finishing pigs. Conditions: taurine 300 mg per kilogram of body weight per day. Format: in vivo. Here is the method: Treatment of the porcine epidemic diarrhea on the weaned piglets, the care pigs and the finishing pigs with taurine was implemented by orally administering taurine to the pigs, wherein the administration may be carried out by means of feeding in water or mixed feeding.
the administration was carried out from the day of occurrence of the disease, and in consideration of the use-cost, the drug administration time is preferably 3-30 days, and more preferably 7-14 days. The effect is subject to an obvious time-effect relationship.
0.1-2% by weight of taurine was added in the daily-drinking water for the pigs to drink freely; or taurine accounting for 0.2-5% of the feed was added thereto, which is equivalent to a dosage of 100-10000 mg per kilogram of body weight per day of taurine, and the administration was in a single dose or in divided doses. The effect is subject to an obvious quantity-effect relationship.
60 diseased weaned piglets, 60 diseased care pigs and 60 diseased finishing pigs were selected, and were randomly divided into two groups equivalently. Control group: conventional supportive therapy (fluid infusion+antibiotic therapy+atropine sulfate); experimental group: treatment with taurine (the dosage of taurine was 300 mg per kilogram of body weight per day).
II. The pharmaceutical composition according to Embodiment 6 was used for the treatment of porcine epidemic diarrhea of the newborn piglets, weaned piglets, care pigs and finishing pigs. A mode of the administration for the newborn piglets was the same as the method in Embodiment 2, i.e. the administration by drenching and/or mixed-feeding was carried out on the day when the disease occurred in the suckling piglets. The administration by drenching: a solution with a mass concentration of 5% was prepared from the pharmaceutical composition in Embodiment 6 with a dosage of 2-4 mL per time and it was taken 2-6 times per day. The administration by mixed-feeding: 4 g/L of the solution was drunk freely. […]

For test [4], the system named is rotavirus diarrhea. In words: Treatment of rotavirus diarrhea. Format: in vivo, pigs.
Test [5] relates to porcine epidemic diarrhea. In words: Prevention of porcine epidemic diarrhea of weaned piglets, care pigs and finishing pigs. Type of test: in vivo. Conditions: taurine 200 mg per kilogram of body weight per day. Here is the method: Prevention of the porcine epidemic diarrhea on the weaned piglets, the care pigs and the finishing pigs with taurine was implemented by orally administering taurine to a swine herd, wherein the administration may be carried out by means of feeding in water or mixed feeding.
a preventative administration was carried out during an epidemic period of the disease, or in autumn, winter and spring when the temperature was low and changed greatly, that is, in the season when the porcine epidemic diarrhea frequently occurs. Generally, the administration can be carried out for a long-term. In consideration of the use-cost, the drug administration time is preferably 3-30 days, and more preferably, 7-14 days. The effect is subject to an obvious time-effect relationship.
0.005-2% by weight of taurine was added in daily-drinking water for the pigs to drink freely; or taurine accounting for 0.01-5% by weight of the feed was added thereto, which is equivalent to a dosage of 50-10000 mg per kilogram of body weight per day of taurine, and the administration was in a single dose or in divided doses. The effect is subject to an obvious quantity-effect relationship.
120 healthy weaned piglets, 120 healthy care pigs and 120 healthy finishing pigs were selected and randomly divided into two groups equivalently. Control group: conventional feeding; experimental group: conventional feeding+taurine (the dosage of taurine was 200 mg per kilogram of body weight per day).
I. The pharmaceutical composition according to Embodiment 6 was used for the prevention of porcine epidemic diarrhea of the newborn piglets, weaned piglets, care pigs and finishing pigs. Particularly, a mode of the administration for the newborn piglets was the same as the method in Embodiment 1, i.e. each pregnant sow was administered with 50 g of the pharmaceutical composition in Embodiment 6 per day, and the administration was in a single dose or in divided doses. […]

In test [6] the test system is porcine epidemic diarrhea. Description: Treatment of porcine epidemic diarrhea of newborn suckling piglets (piglets and lactating sows treated). Type of test: in vivo, pigs. Particulars: diseased newborn suckling piglets; taurine 100 g per sow per day, 0.2 g per piglet per day. Here is the method: Treatment of the porcine epidemic diarrhea on newborn piglets with taurine was implemented by orally administering a taurine solution to diseased suckling piglets and administering taurine to lactating sows, that is, simultaneous treatment of both the suckling piglets and the lactating sows.
the administration by drenching/mixed-feeding was carried out on the day when the disease occurred in the suckling piglets, and a non-interrupted administration lasted for 3-10 days. Lactating sows: non-interrupted oral administration lasted for 5-10 days.
the administration by drenching or mixed-feeding was carried out on the day when the disease occurred in the suckling piglets. The administration by drenching: 2% taurine solution at a dosage of 1-5 mL per time and it was taken 2-6 times per day. The administration by mixed-feeding: 1-20 g/L of taurine solution was drunk freely. Lactating sows: each sow was administered with 5-500 g of taurine per day and the administration was in a single dose or in divided doses.
40 litters of diseased newborn suckling piglets and sows thereof were selected and randomly divided into two groups equivalently. Control group: conventional supportive therapy (fluid infusion+antibiotic therapy+atropine sulfate); experimental group: treatment with taurine.
II. […]

Test [7] deals with porcine transmissible gastroenteritis. Type of test: in vivo, pigs.
The test system of test [8] is epidemic diarrhea. Particulars: diseased piglets, oral, a certain dose; cited from earlier work.
Setting [9] is: care pigs, taurine dosage as in Embodiment 4 (300 mg per kilogram of body weight per day).
Setting [10] is: newborn piglets, taurine dosage as in Embodiment 2 (100 g per sow per day, 0.2 g per piglet per day).
Where [11] appears, read: weaned piglets, taurine dosage as in Embodiment 4 (300 mg per kilogram of body weight per day).

Like-named read-outs stand apart in the source and are kept apart here.

On to `NC(=O)c1ncn([C@@H]2O[C@H](CO)[C@@H](O)[C@H]2O)n1` [Ribavirin], for which, in test [1], the “inhibition of replication of PEDV” value was “capable of inhibiting replication of PEDV”.
Turning to `NCCS(=O)(=O)O` [taurine, β-aminoethanesulfonic acid], the Prognosis entry in test [2] (setting [9]) is reported as “General”; in test [3] (diseased care pigs), “Good”; in test [3] (diseased finishing pigs), “Good”; in test [3] (diseased weaned piglets) it was “Good”; in test [4] (setting [9]) it was “Good”; in test [4] (setting [10]) it was “Good”. The Prognosis entry in test [4] (setting [11]) was “Good”; in test [5] (care pigs), “Excellent”; in test [5] (finishing pigs), “Excellent”; in test [5] (weaned piglets), “Excellent”; in test [6], “Good”; in test [7] (setting [9]), “Good”. For the same molecule, the Prognosis entry in test [7] (finishing pigs, taurine dosage as in Embodiment 4 (300 mg per kilogram of body weight per day)) was “Good”; in test [7] (setting [10]) it was “Good”; in test [7] (setting [11]), “Good”. Besides, in test [2] (summary in text of Table 5), the “treatment effect on the pseudorabies viral diarrhea” value is recorded as “no treatment effect”.
For the molecule povidone iodine, in test [8], the “improvement of survival rate” value was 5-10% and the “prognosis of survived suckling piglets” value is on record as “unfavourable prognosis”.
